pKd: −log10 of the molar value.
Molecular target: Carbonic anhydrase 2 (Bos taurus, UniProt P00921)
Assay: SPR biosensor assay Biacore T100
Settings: 25 °C; for kon: pH 7.4, read-out: kon (M-1-s-1); for pKd: pH 7.4
Text: SPR biosensor assay Biacore T100

Carbonic anhydrase 2, sequence (P00921 whole entry): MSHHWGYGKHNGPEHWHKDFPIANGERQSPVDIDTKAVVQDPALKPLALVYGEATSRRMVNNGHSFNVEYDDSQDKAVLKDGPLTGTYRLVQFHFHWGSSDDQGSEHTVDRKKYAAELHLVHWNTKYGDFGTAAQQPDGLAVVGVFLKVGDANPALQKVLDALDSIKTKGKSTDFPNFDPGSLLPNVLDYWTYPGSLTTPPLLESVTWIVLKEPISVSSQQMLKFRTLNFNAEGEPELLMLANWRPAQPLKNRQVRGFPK

Row | kon [M⁻¹ s⁻¹] | pKd | koff (pH 7.4, read-out: koff (s-1)) [s⁻¹] | Compound
1 | 1.94e+06 | 4.41 | – | O=C1NNS(=O)(=O)c2ccccc21 [1,4-dioxo-1,2,3,4-tetrahydro-1,2,3-benzothiadiazin-1-ium-1-olate]
2 | 164000 | 4.45 | 4.65 | Cn1cnc(S(N)(=O)=O)c1 [1-methyl-1H-imidazole-4-sulfonamide]
3 | 109000 | 6.09 | – | NS(=O)(=O)c1ccc2c(c1)OCCO2 [2,3-dihydro-1,4-benzodioxine-6-sulfonamide]
4 | 58500 | 5.51 | – | NS(=O)(=O)c1ccc2c(c1)CCN2 [2,3-dihydro-1H-indole-5-sulfonamide]
5 | 107000 | 6.40 | – | NS(=O)(=O)c1ccc(F)cc1F [2,4-difluorobenzene-1-sulfonamide]
6 | 19600 | 6.42 | – | Nc1nc2ccc(S(N)(=O)=O)cc2s1 [2-amino-1,3-benzothiazole-6-sulfonamide]
7 | 240000 | 5.66 | – | Cc1ccccc1S(N)(=O)=O [2-methylbenzene-1-sulfonamide]
8 | 93500 | 6.71 | – | CCCn1c(=O)[nH]c2cc(S(N)(=O)=O)ccc21 [2-oxo-1-propyl-2,3-dihydro-1H-1,3-benzodiazole-5-sulfonamide]
9 | 259000 | 6.54 | – | NS(=O)(=O)c1cc(Cl)cc(Cl)c1 [3,5-dichlorobenzene-1-sulfonamide]
10 | 76300 | 7.01 | – | Cc1c(Cl)cc(F)cc1S(N)(=O)=O [3-chloro-5-fluoro-2-methylbenzene-1-sulfonamide]
11 | 203000 | 4.97 | – | Nc1ccc(S(N)(=O)=O)cn1 [6-aminopyridine-3-sulfonamide]

Source: BindingDB's records for doi:10.7270/Q2BC3WXH (University of Dundee, 2010)
